Assays:
[1] = system: ETEC H10407; assay: Bacteria invasion assay (adherence and invasion of ETEC to IECs); format: cell-based, Escherichia coli
Procedure: (§1) Intestinal epithelial cells (IECs) such as HCT8, T84, Caco2, H4, and FHs74 cells, were cultured in 24-well tissue culture plates (Corning life Sciences Inc, MA) at 5×10^4 cells/well in antibiotic free media for 48 hours. The IEC cells, with or without treatment of HMOS or TFiLNO, were incubated with a suspension of ETEC H10407 cells (10^5-10^9 cfu) for 1 h at 37° C. […] gentamicin was then added to the culture to kill any extracellular bacteria cells. Cell lysis was performed in 500 μl of 0.5% Triton X-100 (Sigma, Mo.) for 30 minutes at room temperature. The cell lysates were plated on difco agar plates (antibiotic free) at a proper dilution of 500. The total number of cell-associated bacteria was determined as the number of bacteria in IEC lysate immediately after infection. The number of invaded bacteria was determined as those detected in IEC cell lysate prepared from IECs treated with gentamycin for 1 hour after bacterial infection. The number of bacteria adhered to IEC cells was calculated as follows: (The total number of cell-associated bacteria)−(The number of invaded bacteria). All of the adhesion and invasion assays were performed in duplicate in at least three independent experiments.

[2] = system: IL-8; assay: ELISA of IL-8 secretion by ETEC-infected IECs; format: cell-based; conditions: for IL-8 secretion induced by ETEC invasion: ETEC-infected IECs with inhibitors, FIGS. 3D and 3E
Procedure: as §1
(§2) Levels of proinflammatory factors (IL-8, IL-6, TNF-α, and MCP-1) in the culture supernatants of the IECs were measured using ELISA kits from R&D following manufacturer's protocols.

[3] = system: ETEC; assay: Bacteria killing assay; format: cell-based, Escherichia coli; conditions: TFiLNO 30 pg/ml; FIG. 6A
[4] = system: ETEC; assay: Pre-incubation assay (ETEC pre-incubated with TFiLNO, then invasion of T84 cells); format: cell-based, Escherichia coli; conditions: ETEC pre-incubated 2 h with TFiLNO 30 pg/mL, then T84 cells 1 hour; FIG. 6B
Procedure: ETEC cells in mid-logarithmic growth phase were re-suspended in PBS (pH 7.2) at a concentration of 2×10^8 cells/ml. The suspension was mixed with an equal volume of PBS in the presence or absence of TFiLNO (30 pg/mL), and incubated in U-bottom 96-well plates at room temperature for 2 h with brief mixing every 15 min. At the end of the incubation, the ETEC cells were co-incubated with T84 cells for 1 hour at 37° C. After extracellular bacteria were killed by gentamycin, invaded ETEC were measured as described above.

[5] = system: ETEC; assay: Wash-out experiments (IECs pre-incubated with TFiLNO, washed, then ETEC invasion); format: cell-based, Escherichia coli; conditions: IECs incubated 48 hours with 30 pg/mL TFiLNO, washed 6 times with PBS; FIG. 6C
Procedure: IECs were grown in 24-well tissue culture plates (Corning life Sciences Inc, MA) at 5×10^4 cells/well in an antibiotic free medium for 48 hours. The culture medium was then replaced with a fresh medium containing 30 pg/mL TFiLNO. The IECs were further incubated at 37° C. for 48 hours. Supernatants were discarded and cells were washed 6 times with PBS. The cells were then incubated in a fresh medium free of TFiLNO and contains ETEC (10^8). After 1 hour incubation, extracellular bacteria were killed by gentamycin. Invaded ETEC were measured as described previously.

[6] = system: IL-8; assay: LPS-stimulated IL-8 secretion by T84 cells in the absence of ETEC (ELISA); format: cell-based; conditions: TFiLNO 30 pg/ml, 1 h at 37° C., FIG. 7A
Procedure: as §2
To examine the effect of TFiLNO on IL-8 production, this oligosaccharide (30 pg/ml) was incubated with T84 cells in the absence of ETEC for 1 h at 37° C. IL-8 secretion to the culture medium was determined by ELISA. […] See also FIGS. 7B and 7C.

[7] = system: CD14; assay: CD14 expression on IECs (RT-PCR, FACS); format: cell-based, human; conditions: TFiLNO-treated IECs; FIGS. 7B and 7C
Procedure: IEC cells (e.g., T84 cells) were treated with HMOS (5 mg/mL) prepared as described above for 48 hours. Cells not treated by HMOS were used as a negative control. Total RNAs were purified from the IEC cells and RT-PCR was performed following routine methods to determine the expression levels of genes of interest, including those shown in FIG. 7B. GADPH was used as an internal control. The relative gene expression levels were determined by Delta CT Method. T84 cells treated with or without HMOS were incubated with PE-conjugated mouse anti-human CD14 Mabs. PE-conjugated isotype-matched (IgG1) antibodies were used as controls. Data respecting 20,000 live cells from each sample were collected and subjected to FACS analysis following routine procedures.

Row | Compound | ETEC invasion of IEC cells ([1]; cytochalasin D, FIG. 3D) | IL-8 secretion induced by ETEC invasion [2] | adherence of ETEC to IEC cells ([1]; TFiLNO 30 pg/ml, FIG. 5A) | invasion of ETEC to IEC cells ([1]; TFiLNO 30 pg/ml, FIG. 5B) | secretion of IL-8 by the treated IEC cells ([2]; TFiLNO 30 pg/ml, ETEC-infected IEC cells, over time, FIG. 5C) | killing of ETEC [3] | invasion of ETEC after pre-incubation of ETEC with TFiLNO [4] | inhibitory activity against ETEC invasion after washing off preincubated TFiLNO [5] | IL-8 secretion stimulated by LPS [6] | CD14 expression on IECs [7]
1 | C=C1[C@@H](C)[C@H]2[C@H](Cc3ccccc3)NC(=O)[C@]23[C@H](OC(C)=O)/C=C/[C@@](C)(O)C(=O)[C@@H](C)C/C=C/[C@H]3[C@@H]1O [cytochalasin D, reference compound] | Inhibition of invasion | inhibited | – | – | – | – | – | – | – | –
2 | Trifucosyl(1,2-1,2-1,3)-lacto-N-octoase [TFiLNO] | – | – | inhibit | inhibit | significantly reduced | did not kill | could not be further inhibited | did not affect | directly inhibited | suppression
3 | polymycin-B | – | reduced | – | – | – | – | – | – | – | –

Source: patent publication US20130012472A1, “COMPOSITION AND METHODS OF INHIBITING GASTROINTESTINAL PATHOGEN INFECTION” (Boston College, priority 2011, published 2013)
